Laboratory results taken from EP0029363A1, “Pyrazole derivatives, process for their preparation and pharmaceutical compositions containing them” (MORISHITA PHARMACEUTICAL CO. LTD., priority 1979, dated 1981).
Like-named read-outs stand apart in the source and are kept apart here.

Tests used:
male SD rats [1] = assay: Pharmacological test against hypertriglyceridemia (fructose-loaded rats, serum lipid analysis); assay type: in vivo; conditions: Rattus norvegicus, rats given aqueous 10% fructose for 2 days, oral, three doses, total dose 300 mg/kg as free carboxylic acid (total dose 300, esters 324-329 mg/kg), blood 48 hours after start
Excerpt: Seven groups of male SD rats, each group consisting of 6 animals, were used as test animals and one group consisting of 12 animals was used as a control. The test groups were made hypertriglyceridemic by administering aqueous 10% by weight solution of fructose for 2 days, while the animals of the control group were given tap water. The administration to the test groups of six pyrazole derivatives and of nicotinic acid was as follows:
Each pyrazole derivative and nicotinic acid was separately dissolved or dispersed in an aqueous 1% solution of carboxymethylcellulose (CMC) at a predetermined concentration, and the thus prepared solution or dispersion was orally administered in three doses, each dose having a volume of 0.5 ml/100 g body weight, a first dose just after the commencement of the test, a second dose 24 hours after the first dose, and a third dose 18 hours after the second dose. The total dosage of each compound was such that each animal received 300 mg/kg of each compound as free carboxylic acid. The rats of the control group were given the aqueous l% solution of CMC only, in three doses at the same intervals as the test groups. All the groups were fed with the same diet during the test period.
After 48 hours of the commencement of the test, a blood sample was collected from each animal by amputation of the carotid artery, and serum was separated from the blood sample and frozen to be kept until lipid analysis.
Serum triglyceride was determined by Acetylacetone Method, and the reduction percentage of lipid was calculated on the basis of the following formula: [formula] wherein the reduction percentage is the average for the test animals in each group.
The content of serum cholesterol was determined by an enzymatic method using cholesteroloxidase, and the reduction percentage of cholesterol was calculated according to the following formula: [formula]

male SD rats [2] = assay: Pharmacological test against hypercholesterolemia (high cholesterol diet rats); assay type: in vivo; conditions: high cholesterol diet for 7 days, oral 200 mg/kg/day for 7 consecutive days, blood after 20 hours of fasting; for Reduction Percentage Cholesterol in beta-lipoprotein: beta-lipoprotein-cholesterol (heparin-calcium precipitation); for Reduction Percentage Cholesterol: serum cholesterol
Excerpt: Three groups of male SD rats each weighing about 150g, each group consisting of five rats, were used as test animals and one group consisting of 10 rats was used as control. All animals were fed a high cholesterol diet consisted of 1% cholesterol, 0.2% sodium cholate, 5% olive oil and commercial diet up to total 100% for 7 days. The test compounds of the present invention and clofibrate, as a medicine for comparison, were respectively dissolved or dispersed in an aqueous 1% solution of CMC so that the volume of the solution or dispersion administered each time to an animal was 0.5 ml/l00g body weight, and the solution or dispersion was orally administered so that the amount of administration each time of each pyrazole derivative or of clofibrate was 200 mg/kg body weight. Administration was carried out once a day for 7 consecutive days. Water was taken ad lib. After 20 hours of fasting from the last administration, a blood sample was taken from each animal by amputation of the carotid artery, and the serum separated was frozen until the analysis of cholesterol shown as follows:
The content of serum cholesterol was determined by the above-mentioned method. The beta-lipoprotein- cholesterol was determined by "heparin-calcium precipitation method". The reduction percentage of cholesterol in serum and beta-lipoprotein were calculated in the same manner as above.

Acute toxicity, oral = conditions: mouse, in vivo, male ICR mice, in aqueous 1% CMC, roughly calculated from mortalities at 2.5 and 5.0 g/kg body weight
Experimental: The acute toxicity of the present pyrazole derivatives to mammals was determined by the following method.
Male ICR mice of body weight 21 to 25 g were divided into several groups each consisting of 8 animals and were fasted for 17 to 18 hours and then orally given a pyrazole derivative or nicotinic acid dissolved or dispersed in an aqueous 1% CMC solution at a rate of 0.2 ml/10 g body weight. The administered amount of each compound was 2.5 g/kg body weight or 5.0 g/kg, and from the mortalities at both levels, LD50 was roughly calculated and compared with LD50 of nicotinic acid.

[3] = serum cholesterol, read-out: Reduction Percentage Cholesterol
[4] = serum triglyceride, read-out: Reduction Percentage Triglyceride

Structure (SMILES)	inhibition in vivo at 300 mg/kg (male SD rats [1]; [3]) [%]	inhibition in vivo at 300 mg/kg (male SD rats [1]; [4]) [%]	Reduction Percentage Cholesterol in beta-lipoprotein (male SD rats [2])	Reduction Percentage Cholesterol (male SD rats [2])	LD50 (Acute toxicity, oral) [mg/kg]
CCCCCCCCCCCCCCCCCc1cc(C(=O)OCC)n[nH]1 [ethyl 5-n-heptadecylpyrazole-3-carboxylate]	32.9	35.2	–	–	–
CCCCCCCCCCCCCc1cc(C(=O)OCC)n[nH]1 [ethyl 5-n-tridecylpyrazole-3-carboxylate]	65.1	88	–	–	–
CCCCCCCCCCCCCc1cc(C(=O)NCC(=O)OCC)n[nH]1 [3-N-ethoxycarbonylmethylcarbamoyl-5-n-tridecylpyrazole]	34.8	81.4	32.7	48.6	–
O=C(O)c1cccnc1 [Nicotinic acid, reference compound]	16.4	24.1	–	–	4500
CCCCCCCCCCCCCc1cc(C(=O)O)n[nH]1 [5-n-tridecylpyrazole-3-carboxylic acid]	59.8	76.4	54.3	45.2	–
CCCCCCCCCCCCCCCc1cc(C(=O)O)n[nH]1 [5-n-pentadecylpyrazole-3-carboxylic acid]	32.1	62.8	–	–	–
CCCCCCCCCCCCCCCc1cc(C(=O)OCC)n[nH]1 [ethyl 5-n-pentadecylpyrazole-3-carboxylate]	34.1	67.8	–	–	–
CCCCCCCCCCCCCc1cc(CO)n[nH]1 [3-hydroxymethyl-5-n-tridecylpyrazole]	55.8	78.2	25.2	52.7	–
CCCCCCCCCCCCCCCCCc1cc(C(=O)O)n[nH]1 [5-n-heptadecylpyrazole-3-carboxylic acid]	24.5	30.5	–	–	–
CCCCCCCCCCCCCc1cc(C(=O)O)nn1C [1-methyl-5-n-tridecylpyrazole-3-carboxylic acid]	61.2	75.9	57.3	60.1	–
